From ChEMBL document CHEMBL1201862, “PubChem BioAssay data set” (2004)
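Step 1: Grow cells in 96-well plates. Step 2: Expose to compound for 48 hours at 5 concentrations. Step 3: Interpolate endpoints linearly; if unreached, use highest concentration. GI50 = concentration required for 50% inhibition of growth.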 Active and inactive are the calls of the source. Cut-off read from the data, not from the text of the source: active = GI50 up to about 1.1 µM and inactive = higher. Residues, ends and D or L forms follow the SMILES beside them.

Experiments:
Test in all cases: NCI tumour cell line growth inhibition, 48 h
786-0 = tested on: 786-0
A498 = tested on: A498
A549 = tested on: A549
DU-145 = tested on: DU-145
HCT-15 = tested on: HCT-15
HL-60 = tested on: HL-60
K562 = tested on: K562
LOX IMVI = tested on: LOX IMVI
MDA-N = tested on: MDA-N
MOLT-4 = tested on: MOLT-4
NCI-H522 = tested on: NCI-H522
NCI/ADR-RES = tested on: NCI/ADR-RES
OVCAR-3 = tested on: OVCAR-3
RPMI-8226 = tested on: RPMI-8226
SF-268 = tested on: SF-268
SF-295 = tested on: SF-295
SF-539 = tested on: SF-539
SR = tested on: SR
TK-10 = tested on: TK-10
UACC-62 = tested on: UACC-62

Measured: GI50

CC(C)(Cl)C(Cl)CC/C(CBr)=C(\Cl)CBr (centres undefined)
1.75 µM: HCT-15
inactive: 786-0 1.36 µM | A498 19.2 µM | A549 10.6 µM | DU-145 7.5 µM | MDA-N 1.81 µM | NCI/ADR-RES 2.77 µM | OVCAR-3 2.64 µM | SF-268 3.3 µM | SF-295 6.49 µM | SF-539 2.4 µM | TK-10 1.95 µM | UACC-62 1.76 µM
active: HL-60 0.32 µM | K562 0.586 µM | LOX IMVI 0.209 µM | MOLT-4 0.473 µM | NCI-H522 0.55 µM | RPMI-8226 0.706 µM | SR 0.443 µM

COc1cc(O)c2c(=O)c(OC)c(-c3ccc(OC)c(O)c3)oc2c1 [AYANIN]
14.3 µM: HCT-15
inactive: 786-0 12.5 µM | A498 3.44 µM | A549 76.6 µM | DU-145 20 µM | HL-60 > 100 µM | K562 60.5 µM | LOX IMVI 20.7 µM | MDA-N 73.1 µM | MOLT-4 42.7 µM | NCI-H522 29.1 µM | NCI/ADR-RES > 100 µM | OVCAR-3 63.8 µM | RPMI-8226 33.1 µM | SF-268 33.2 µM | SF-295 7.78 µM | SF-539 18.4 µM | SR 22.1 µM | TK-10 17.6 µM | UACC-62 23.5 µM

CC12CCC(C(=O)OC1=O)C2(C)C (centres undefined)
inactive: 786-0 > 100 µM | A498 > 100 µM | DU-145 > 100 µM | HL-60 32.1 µM | K562 > 100 µM | LOX IMVI > 100 µM | MDA-N > 100 µM | MOLT-4 > 100 µM | NCI-H522 > 100 µM | NCI/ADR-RES > 100 µM | OVCAR-3 > 100 µM | RPMI-8226 > 100 µM | SF-268 > 100 µM | SF-295 > 100 µM | SF-539 > 100 µM | TK-10 > 100 µM | UACC-62 > 100 µM
> 100 µM: HCT-15
active: SR 0.628 µM

CC(C)Cc1ccc(C(C)/C=C2\CCC(CN3CCOCC3)C2=O)cc1 (centres undefined)
inactive: 786-0 1.69 µM | A498 12.5 µM | A549 18.6 µM | DU-145 13.7 µM | HL-60 2.69 µM | K562 1.92 µM | LOX IMVI 2.33 µM | MDA-N 12.1 µM | MOLT-4 1.64 µM | NCI-H522 5.62 µM | NCI/ADR-RES 3.93 µM | OVCAR-3 4.1 µM | SF-268 6.87 µM | SF-295 15.3 µM | SF-539 12.5 µM | SR 2.08 µM | TK-10 5.82 µM | UACC-62 12.5 µM
active: RPMI-8226 0.665 µM
2.94 µM: HCT-15

C(=C\c1nccs1)/c1cccc(/C=C/c2nccs2)n1
inactive: 786-0 > 50 µM | A498 > 50 µM | A549 > 50 µM | DU-145 > 50 µM | HL-60 > 50 µM | K562 > 50 µM | LOX IMVI > 50 µM | MDA-N > 50 µM | MOLT-4 38.4 µM | NCI-H522 > 50 µM | NCI/ADR-RES > 50 µM | OVCAR-3 > 50 µM | RPMI-8226 > 50 µM | SF-268 > 50 µM | SF-295 > 50 µM | SF-539 > 50 µM | SR > 50 µM | TK-10 > 50 µM | UACC-62 > 50 µM
> 50 µM: HCT-15

CCC(C)C(NC(=O)C(CC(C)C)NC(=O)CNC(=O)C(NC(=O)C1CCCN1C(=O)C(CC(C)C)NC(=O)C(N)Cc1ccccc1)C(C)CC)C(=O)NC(CC(C)C)C(N)=O (centres undefined) (H-FLPIGLIL-NH2; configuration not given here)
inactive: 786-0 > 75 µM | A498 > 75 µM | A549 > 75 µM | DU-145 > 75 µM | HL-60 > 75 µM | K562 > 75 µM | LOX IMVI > 75 µM | MDA-N > 75 µM | MOLT-4 > 75 µM | NCI-H522 > 75 µM | NCI/ADR-RES > 75 µM | OVCAR-3 > 75 µM | RPMI-8226 > 75 µM | SF-268 > 75 µM | SF-295 > 75 µM | SF-539 > 75 µM | SR > 75 µM | TK-10 > 75 µM | UACC-62 > 75 µM
> 75 µM: HCT-15

O=C(O)COc1c(Cl)cc(Cl)c2cccnc12
> 100 µM: HCT-15
inactive: 786-0 > 100 µM | A498 > 100 µM | A549 > 100 µM | DU-145 > 100 µM | HL-60 > 100 µM | K562 > 100 µM | LOX IMVI > 100 µM | MDA-N > 100 µM | MOLT-4 > 100 µM | NCI-H522 > 100 µM | NCI/ADR-RES > 100 µM | OVCAR-3 > 100 µM | RPMI-8226 > 100 µM | SF-268 > 100 µM | SF-295 > 100 µM | SF-539 > 100 µM | SR > 100 µM | TK-10 > 100 µM | UACC-62 > 100 µM
